Data taken from PMC12114619, “Nifuroxazide and 4-Hydroxybenzhydrazone Derivatives as New Antiparasitic (Trypanosoma cruzi and Leishmania mexicana) and Anti-Mycobacterium tuberculosis Agents” (Pharmaceutics, 2025).
“And” between values parts separate entries of the source, which are not always exact repeats. Equal values may be shown once.

Tested on: T. cruzi NINOA (MHOM/MX/1994/NINOA) strain epimastigotes
Test: Trypanocidal activity, T. cruzi epimastigotes, NINOA strain (resazurin)
Assay type: cell-based, Trypanosoma cruzi
Conditions: 48 h

Row | SMILES | IC50 T. cruzi NINOA | IC50
1 | O=C(N/N=C/c1ccc(Br)cc1)c1ccc(O)cc1 [Nfz-17] | loss of trypanocidal activity | –
2 | COc1ccccc1/C=N/NC(=O)c1ccc(O)cc1 [Nfz-12] | inactivity | –
3 | O=C(N/N=C/c1ccc(Br)s1)c1ccc(O)cc1 [Nfz-2] | – | 4.77 ± 5.6 µM
4 | O=C(N/N=C/c1ccc(Cl)cc1)c1ccc(O)cc1 [Nfz-16] | loss of trypanocidal activity | –
5 | O=C(N/N=C/c1ccccc1[N+](=O)[O-])c1ccc(O)cc1 [Nfz-19] | – | 36.5 ± 2.2 µM
6 | O=C(N/N=C/c1ccco1)c1ccc(O)cc1 [Nfz-4] | – | 19 ± 2.1 µM

Same assay, conditions: Trypanosoma cruzi, 48 h

Row | SMILES | IC50
7 | COc1cc(/C=N/NC(=O)c2ccc(O)cc2)cc(OC)c1OC [Nfz-14] | 28 ± 1.9 µM
8 | O=C(N/N=C/c1ccc([N+](=O)[O-])o1)c1ccc(O)cc1 [Nfz, Nifuroxazide] | 36 ± 1.2 µM
9 | O=C(N/N=C/c1ccc(Br)cc1)c1ccc(O)cc1 [Nfz-17] | > 100 µM
10 | COc1ccccc1/C=N/NC(=O)c1ccc(O)cc1 [Nfz-12] | > 100 µM
11 | O=C(N/N=C/c1ccc(Br)s1)c1ccc(O)cc1 [Nfz-2] | 4.7 µM
12 | O=C(N/N=C/c1ccc(Cl)cc1)c1ccc(O)cc1 [Nfz-16] | > 100 µM
13 | O=C(N/N=C/c1ccccc1O)c1ccc(O)cc1 [Nfz-10] | > 100 µM
14 | O=C(N/N=C/c1ccccc1[N+](=O)[O-])c1ccc(O)cc1 [Nfz-19] | 36.4 µM
15 | O=C(N/N=C/c1ccco1)c1ccc(O)cc1 [Nfz-4] | 18.8 µM

Tested on: T. cruzi strain A1 epimastigotes
Test: Trypanocidal activity, T. cruzi epimastigotes, A1 strain (resazurin)
Assay type: cell-based, Trypanosoma cruzi
Conditions: 48 h

Row | SMILES | IC50
16 | COc1cc(/C=N/NC(=O)c2ccc(O)cc2)cc(OC)c1OC [Nfz-14] | 29.2 ± 4.4 µM
17 | O=C(N/N=C/c1ccc([N+](=O)[O-])o1)c1ccc(O)cc1 [Nfz, Nifuroxazide] | 10.4 ± 1.6 µM
18 | O=C(N/N=C/c1ccc(Br)cc1)c1ccc(O)cc1 [Nfz-17] | 33.6 ± 3.9 µM
19 | O=C(N/N=C/c1ccc(Cl)cc1)c1ccc(O)cc1 [Nfz-16] | 40.2 ± 2.7 µM
20 | O=C(N/N=C/c1ccccc1O)c1ccc(O)cc1 [Nfz-10] | 8.77 ± 1.6 µM
21 | O=C(N/N=C/c1ccccc1[N+](=O)[O-])c1ccc(O)cc1 [Nfz-19] | 42.5 ± 6.7 µM
22 | O=C(N/N=C/c1ccco1)c1ccc(O)cc1 [Nfz-4] | 28.9 ± 3.4 µM

Same assay, conditions: Trypanosoma cruzi, 48 h

Row | SMILES | IC50
23 | COc1cc(/C=N/NC(=O)c2ccc(O)cc2)cc(OC)c1OC [Nfz-14] | 29.2 µM
24 | O=C(N/N=C/c1ccc([N+](=O)[O-])o1)c1ccc(O)cc1 [Nfz, Nifuroxazide] | 10.4 µM
25 | O=C(N/N=C/c1ccc(Br)cc1)c1ccc(O)cc1 [Nfz-17] | < 50 µM
26 | COc1ccccc1/C=N/NC(=O)c1ccc(O)cc1 [Nfz-12] | > 100 µM
27 | O=C(N/N=C/c1ccc(Br)s1)c1ccc(O)cc1 [Nfz-2] | > 100 µM
28 | O=C(N/N=C/c1ccc(Cl)cc1)c1ccc(O)cc1 [Nfz-16] | < 50 µM
29 | O=C(N/N=C/c1ccccc1O)c1ccc(O)cc1 [Nfz-10] | 8.7 µM
30 | O=C(N/N=C/c1ccccc1[N+](=O)[O-])c1ccc(O)cc1 [Nfz-19] | 42.4 µM
31 | O=C(N/N=C/c1ccco1)c1ccc(O)cc1 [Nfz-4] | 28.8 µM

Tested on: L. mexicana MNYC/BZ/62/M379 promastigotes
Test: Leishmanicidal activity, L. mexicana promastigotes, M379 strain (MTT)
Assay type: cell-based, Leishmania mexicana
Conditions: 48 h
Description: (§1) For leishmanicidal assays, the reference strain (MNYC/BZ/62/M379) and the isolate (MHOM/MX/2017/UABJO17FCQEPS) of L. mexicana were used. Promastigotes were cultured in RPMI 1640 medium supplemented with 10% FBS, 100 U/mL penicillin-100 […] streptomycin, and glutamine (2 mM). 100 µL parasites (5 × 10^5/mL) were added in a 96-well plate, and 100 µL of appropriate concentrations (0.78 to 200 µM) of each sample dissolved in DMSO and incubated for 48 h at 26 °C. Wells containing promastigotes with DMSO 0.2% were used as a negative control, and the reference drug glucantime was included as the positive control. The 3-(4,5-Dimethylthiazol-2-yl)-2,5-diphenyltetrazolium bromide (MTT) was used to measure metabolic activity. The IC50 values were calculated with the probit statistical tool. All samples were evaluated in triplicate in three independent experiments.

Row | SMILES | IC50 L. mexicana M379 | IC50
32 | O=C(N/N=C/c1ccc([N+](=O)[O-])o1)c1ccc(O)cc1 [Nfz, Nifuroxazide] | no leishmanicidal effects | –
33 | O=C(N/N=C/c1ccc(Br)cc1)c1ccc(O)cc1 [Nfz-17] | – | 62 ± 2.5 µM
34 | COc1ccccc1/C=N/NC(=O)c1ccc(O)cc1 [Nfz-12] | – | 11.5 µM and 11.6 µM
35 | O=C(N/N=C/c1ccc(Br)s1)c1ccc(O)cc1 [Nfz-2] | no leishmanicidal effects | –
36 | O=C(N/N=C/c1ccc(Cl)cc1)c1ccc(O)cc1 [Nfz-16] | – | 67.5 ± 4 µM
37 | O=C(N/N=C/c1ccccc1O)c1ccc(O)cc1 [Nfz-10] | – | 66.7 ± 2.9 µM
38 | O=C(N/N=C/c1ccccc1[N+](=O)[O-])c1ccc(O)cc1 [Nfz-19] | – | 146.7 ± 0.7 µM

Same assay, conditions: Leishmania mexicana, 48 h

Row | SMILES | IC50
39 | COc1cc(/C=N/NC(=O)c2ccc(O)cc2)cc(OC)c1OC [Nfz-14] | > 200 µM
40 | O=C(N/N=C/c1ccc([N+](=O)[O-])o1)c1ccc(O)cc1 [Nfz, Nifuroxazide] | > 200 µM
41 | O=C(N/N=C/c1ccc(Br)cc1)c1ccc(O)cc1 [Nfz-17] | > 60 µM
42 | COc1ccccc1/C=N/NC(=O)c1ccc(O)cc1 [Nfz-12] | < 20 µM
43 | O=C(N/N=C/c1ccc(Br)s1)c1ccc(O)cc1 [Nfz-2] | > 200 µM
44 | O=C(N/N=C/c1ccc(Cl)cc1)c1ccc(O)cc1 [Nfz-16] | > 60 µM
45 | O=C(N/N=C/c1ccccc1O)c1ccc(O)cc1 [Nfz-10] | > 50 µM
46 | O=C(N/N=C/c1ccccc1[N+](=O)[O-])c1ccc(O)cc1 [Nfz-19] | > 100 µM
47 | O=C(N/N=C/c1ccco1)c1ccc(O)cc1 [Nfz-4] | 83.9 ± 6.9 µM

Tested on: L. mexicana MHOM/MX/2017/UABJO17FCQEPS promastigotes
Test: Leishmanicidal activity, L. mexicana promastigotes, FCQEPS isolate (MTT)
Assay type: cell-based, Leishmania mexicana
Conditions: FCQEPS strain, 48 h
Description: as §1

Row | SMILES | IC50
48 | COc1cc(/C=N/NC(=O)c2ccc(O)cc2)cc(OC)c1OC [Nfz-14] | 10.3 ± 0.8 µM

Same assay, conditions: Leishmania mexicana, 48 h, FCQEPS strain

Row | SMILES | IC50
49 | COc1cc(/C=N/NC(=O)c2ccc(O)cc2)cc(OC)c1OC [Nfz-14] | 10.2 µM
50 | O=C(N/N=C/c1ccc([N+](=O)[O-])o1)c1ccc(O)cc1 [Nfz, Nifuroxazide] | 51.2 ± 4.2 µM
51 | O=C(N/N=C/c1ccc(Br)cc1)c1ccc(O)cc1 [Nfz-17] | 52.1 ± 4.8 µM
52 | COc1ccccc1/C=N/NC(=O)c1ccc(O)cc1 [Nfz-12] | 60.3 ± 4.7 µM
53 | O=C(N/N=C/c1ccc(Br)s1)c1ccc(O)cc1 [Nfz-2] | 98.8 ± 5.2 µM
54 | O=C(N/N=C/c1ccc(Cl)cc1)c1ccc(O)cc1 [Nfz-16] | 78.1 ± 3.6 µM
55 | O=C(N/N=C/c1ccccc1O)c1ccc(O)cc1 [Nfz-10] | > 200 µM
56 | O=C(N/N=C/c1ccccc1[N+](=O)[O-])c1ccc(O)cc1 [Nfz-19] | > 200 µM
57 | O=C(N/N=C/c1ccco1)c1ccc(O)cc1 [Nfz-4] | > 200 µM

Tested on: M. tuberculosis H37Rv (ATCC 27294)
Test: Anti-Mycobacterium activity, microplate Alamar Blue Assay (MABA)
Assay type: cell-based, Mycobacterium tuberculosis
Conditions: H37Rv strain, minimum concentration achieving 90% inhibition
Description: The reference strain H37Rv (ATCC 27294) of M. tuberculosis was utilized to assess anti-M. tuberculosis activity using the microplate Alamar Blue Assay (MABA), as previously reported. Samples underwent evaluation in triplicate independent experiments. Isoniazid, rifampicin, moxifloxacin, and linezolid were included as reference drugs, and the minimum drug concentration that achieved 90% inhibition was recorded as the minimum inhibitory concentration (MIC).

Row | SMILES | MABA MIC
58 | O=C(N/N=C/c1ccc([N+](=O)[O-])o1)c1ccc(O)cc1 [Nfz, Nifuroxazide] | 12.3 µg/mL
59 | O=C(N/N=C/c1ccc(Br)cc1)c1ccc(O)cc1 [Nfz-17] | 43.6 µg/mL
60 | O=C(N/N=C/c1ccc(Br)s1)c1ccc(O)cc1 [Nfz-2] | 18.8 µg/mL
61 | O=C(N/N=C/c1ccc(Cl)cc1)c1ccc(O)cc1 [Nfz-16] | 46.4 µg/mL
62 | O=C(N/N=C/c1ccccc1O)c1ccc(O)cc1 [Nfz-10] | 47.6 µg/mL

Same assay, conditions: Mycobacterium tuberculosis, H37Rv strain, minimum concentration achieving 90% inhibition

Row | SMILES | MIC
63 | COc1cc(/C=N/NC(=O)c2ccc(O)cc2)cc(OC)c1OC [Nfz-14] | > 200 µg/mL
64 | O=C(N/N=C/c1ccc([N+](=O)[O-])o1)c1ccc(O)cc1 [Nfz, Nifuroxazide] | < 20 µg/mL
65 | O=C(N/N=C/c1ccc(Br)cc1)c1ccc(O)cc1 [Nfz-17] | < 50 µg/mL
66 | COc1ccccc1/C=N/NC(=O)c1ccc(O)cc1 [Nfz-12] | > 100 µg/mL
67 | O=C(N/N=C/c1ccc(Br)s1)c1ccc(O)cc1 [Nfz-2] | < 20 µg/mL
68 | O=C(N/N=C/c1ccc(Cl)cc1)c1ccc(O)cc1 [Nfz-16] | < 50 µg/mL
69 | O=C(N/N=C/c1ccccc1O)c1ccc(O)cc1 [Nfz-10] | < 50 µg/mL
70 | O=C(N/N=C/c1ccccc1[N+](=O)[O-])c1ccc(O)cc1 [Nfz-19] | > 100 µg/mL
71 | O=C(N/N=C/c1ccco1)c1ccc(O)cc1 [Nfz-4] | > 100 µg/mL

Tested on: not listed separately
Test: Cytotoxicity on macrophages (MTT)
Assay type: cell-based, mouse
Conditions: mouse, Cytotoxicity (CC50) Macrophages J774.2
Description: Cytotoxicity was assessed on J774.2 mouse macrophage cells (ATCC® TIB-67, ATCC, Manassas, VA, USA). Cells were cultured in RPMI medium supplemented with 10% SFB, 100 U µg/mL penicillin-100 mg/mL streptomycin, and glutamine (2 mM) at 37 °C and in a 5% CO2 atmosphere. A known concentration of cells (1 × 10^6/mL) was incubated with the compounds at different concentrations (0.78 to 200 µM) for 48 h at 37 °C in a CO2 atmosphere (5%). Wells containing cells treated with 0.2% DMSO were used as a negative control. MTT was employed to evaluate the metabolic activity. Next, the cell viability was calculated (%), and the cytotoxic concentration (CC50) was determined with probit analysis. All samples were evaluated in triplicate in three independent experiments.

Row | SMILES | CC50 at 48 h
72 | COc1cc(/C=N/NC(=O)c2ccc(O)cc2)cc(OC)c1OC [Nfz-14] | > 100 µM
73 | O=C(N/N=C/c1ccc(Br)cc1)c1ccc(O)cc1 [Nfz-17] | > 100 µM
74 | COc1ccccc1/C=N/NC(=O)c1ccc(O)cc1 [Nfz-12] | 76.5 ± 3.6 µM
75 | O=C(N/N=C/c1ccc(Br)s1)c1ccc(O)cc1 [Nfz-2] | 95.5 ± 4.2 µM
76 | O=C(N/N=C/c1ccc(Cl)cc1)c1ccc(O)cc1 [Nfz-16] | 83.2 ± 3.2 µM
77 | O=C(N/N=C/c1ccccc1O)c1ccc(O)cc1 [Nfz-10] | > 100 µM
78 | O=C(N/N=C/c1ccccc1[N+](=O)[O-])c1ccc(O)cc1 [Nfz-19] | > 100 µM
79 | O=C(N/N=C/c1ccco1)c1ccc(O)cc1 [Nfz-4] | > 100 µM

Same assay, conditions: mouse, J774.2 macrophage cells, J774.2 macrophages, 48 h, MTT; read-out: Cytotoxicity (CC50) Macrophages J774.2

Row | SMILES | CC50 at 48 h
80 | O=C(N/N=C/c1ccc([N+](=O)[O-])o1)c1ccc(O)cc1 [Nfz, Nifuroxazide] | 42.2 ± 2.3 µM
